Legend:
Assay type in all cases: in vivo
[1] = system: Croton glandulosus (CROTON); assay: Ex 4 pre-emergence, visual % damage; conditions: kg/ha or L/ha: Amicarbazone 1.50, Gesapax 5.00, Karmex 5.00, Provence 0.20, Sencor 3.50, alone
Method: DINAMIC® (amicarbazone) in combination of various herbicides listed in Table 4-1 were tested for herbicidal activity.
The herbicidal effect was observed by comparing the extent of Croton glandulosus (CROTON) treated with the compounds against that occurring in similar non-treated control. Herbicidal effect was visually assessed and recorded at 14, 23, 36, 49, 65 and 77 days after treatment (DAT). Damage by the herbicidal compositions was evaluated with reference to a scale of 0% to 100% in comparison with untreated control. 0% means no damage and 100% means complete destruction of the plants. […] The theoretical herbicidal effect index were calculated based on Colby and the values were indicated in bracket (2). Some of the observed herbicidal effects were the same as the theoretical hervicidal effects, which indicate additive effects. The underlined values in the table indicate that the observed weed killing is greater than calculated from the Colby formula and therefore indicates a synergistic weed killing effect or activity.

[2] = system: Green Foxtail; assay: Ex 5/7 greenhouse spray, bleaching/injury ratings
Method: (§1) Containers were watered as needed based on species and water usage. The greenhouse was heated to keep temperatures above 50° F. (10° C.) and ventilated as needed to keep temperatures below 100° F. (38° C.). Typical daytime temperatures in the greenhouse were 80-90° F. (27-32° C.) and nighttime temperatures were between 50-60° F. (10-16° C.). The soil employed was Promix BX potting soil. Overall moisture conditions were normal and the closest weather station was on-site. Conditions and equipment employed in this Example are tabulated below in Tables 5-1 and 5-2.
(§2) All containers were moved outdoors from the greenhouse and arranged in blocks by treatment for the herbicide applications. A single spray application was applied to each block containing four repetitions of each species for each treatment. Plants were then immediately returned to the greenhouse and irrigated with approximately ¼″ water 1-3 hrs after treatment with a hose end sprayer. Only the Poa plants were trimmed with scissors two days prior to treatment at a height of approximately 3 inches.
(§3) Referring to FIGS. 2A-B, 3A-C, 4A-C, and 5A-D, all ratings of injury or bleaching are based on a scale from 1 to 9. […] Any bleaching measurement 4 and above was considered unacceptable for desirable turf species. In injury measurements, 1 indicates no injury while 9 indicates a dead plant. Any injury measurement 4 and above was considered unacceptable for desirable turf species). Density correlates with percent cover where 1 indicates no grass while 9 indicates a full pot.
(§4) Replications employed include 4, Untreated treatments: 1, Design: Randomized Complete Block, Treatment units: US standard, Treated plot size Width: 4 feet, Treated plot size Length: 4 feet, Application volume: 50 gal/ac, Mix size: 0.5562 liters, Mix overage: 100%, Format definitions: G-All7.DEF, G-All7.FRM.
(§5) In evaluating synergism, the data from Example 5 above were converted to % of control. This was done based on the data provided on a 1-9 scale detailed in Example 5. Expected values were computed from the % of control data by the formula for expected control=[…], where A is the % of control value for herbicide A alone and B is the % of control value for herbicide B alone.

[3] = system: Mustard (Sinapsis sp.); assay: Ex 5/7 greenhouse spray, bleaching/injury ratings
Method: as §1, §2, §3, §4, §5

[4] = system: Crabgrass sp.; assay: Ex 5/7 greenhouse spray, bleaching/injury/density ratings
Method: as §1, §2
Transplanted tillering Kentucky Bluegrass was 5 to 6 months old, transplanted Poa annua was 5 to 6 months old. Tall fescue was seeded into the crabgrass pots. St. Augustine plants (Floratam and Saphire) were shipped from Port St. Lucie, Fla. Only two replicates of Saphire St. Augustine grass were used due to plant availability.
as §3, §4, §5

[5] = rating 1, 0.022 lbs ai/A (0.5 oz/A)
[6] = rating 1, 0.13 lbs ai/A (3 oz/A)
[7] = rating 2, 0.022 lbs ai/A (0.5 oz/A)
[8] = rating 2, 0.13 lbs ai/A (3 oz/A)
[9] = rating 3, 0.022 lbs ai/A (0.5 oz/A)
[10] = rating 3, 0.13 lbs ai/A (3 oz/A)
[11] = rating 4, 0.022 lbs ai/A (0.5 oz/A)
[12] = rating 4, 0.13 lbs ai/A (3 oz/A)
[13] = rating 5, 0.022 lbs ai/A (0.5 oz/A)
[14] = rating 5, 0.13 lbs ai/A (3 oz/A)
[15] = rating 6, 0.022 lbs ai/A (0.5 oz/A)
[16] = rating 6, 0.13 lbs ai/A (3 oz/A)
[17] = rating 7, 0.022 lbs ai/A (0.5 oz/A)
[18] = rating 7, 0.13 lbs ai/A (3 oz/A)
[19] = 6 DA-A, Trt 2/4/6: Amicarbazone 0.0219, Tenacity 0.125 lb ai/a
[20] = 6 DA-A, Trt 3/5/9: Amicarbazone 0.131, Tenacity 0.25 lb ai/a
[21] = 7 DA-A, Trt 2/4/6: Amicarbazone 0.0219, Tenacity 0.125 lb ai/a
[22] = 7 DA-A, Trt 3/5/9: Amicarbazone 0.131, Tenacity 0.25 lb ai/a

CC(C)c1nn(C(=O)NC(C)(C)C)c(=O)n1N [Amicarbazone, 4-amino-5-isopropyl-2-(tert-butyl-aminocarbonyl)-2,4-dihydro-3H-1,2,4-triazol-3-one]
percentage control ([1]; 14 DAT): 100% | percentage control ([1]; 23 DAT): 99% | percentage control ([1]; 36 DAT): 99% | percentage control ([1]; 49 DAT): 99% | percentage control ([1]; 65 DAT): 99% | percentage control ([1]; 77 DAT): 99% | Green Foxtail bleaching [2, 5]: 100 % of control | Green Foxtail injury [2, 5]: 97 | Green Foxtail bleaching [2, 6]: 100 % of control | Green Foxtail injury [2, 6]: 67 | Green Foxtail bleaching [2, 7]: 104 % of control | Green Foxtail injury [2, 7]: 94 | Green Foxtail bleaching [2, 8]: 104 % of control | Green Foxtail injury [2, 8]: 69 | Green Foxtail bleaching [2, 9]: 104 % of control | Green Foxtail injury [2, 9]: 97 | Green Foxtail bleaching [2, 10]: 104 % of control | Green Foxtail injury [2, 10]: 81 | Green Foxtail bleaching [2, 11]: 104 % of control | Green Foxtail injury [2, 11]: 97 | Green Foxtail bleaching [2, 12]: 104 % of control | Green Foxtail injury [2, 12]: 84 | Green Foxtail bleaching [2, 13]: 160 % of control | Green Foxtail injury [2, 13]: 102 | Green Foxtail bleaching [2, 14]: 106 % of control | Green Foxtail injury [2, 14]: 77 | Green Foxtail injury [2, 15]: 97 | Green Foxtail injury [2, 16]: 73 | Green Foxtail injury [2, 17]: 268 | Green Foxtail injury [2, 18]: 144 | Injury (1-9 scale) ([3]; 3 DA-A, Trt 2/4/6: Amicarbazone 0.0219, Tenacity 0.125 lb ai/a): 2.8 b | Injury (1-9 scale) ([3]; 3 DA-A, Trt 3/5/9: Amicarbazone 0.131, Tenacity 0.25 lb ai/a): 6.8 a | Bleaching (1-9 scale) [3, 19]: 2.0 bc | Injury (1-9 scale) [3, 19]: 2.8 c | Bleaching (1-9 scale) [3, 20]: 1.3 c | Injury (1-9 scale) [3, 20]: 6.5 ab | Bleaching (1-9 scale) [3, 21]: 2.0 bc | Injury (1-9 scale) [3, 21]: 4.3 c | Bleaching (1-9 scale) [3, 22]: 2.0 bc | Injury (1-9 scale) [3, 22]: 7.0 b | Injury (1-9 scale) ([3]; 10 DA-A, Trt 2/4/6: Amicarbazone 0.0219, Tenacity 0.125 lb ai/a): 6.0 b | Injury (1-9 scale) ([3]; 10 DA-A, Trt 3/5/9: Amicarbazone 0.131, Tenacity 0.25 lb ai/a): 8.8 a | Injury (1-9 scale) ([3]; 14 DA-A, Trt 2/4/6: Amicarbazone 0.0219, Tenacity 0.125 lb ai/a): 5.8 b | Injury (1-9 scale) ([3]; 14 DA-A, Trt 3/5/9: Amicarbazone 0.131, Tenacity 0.25 lb ai/a): 8.8 a | Mustard bleaching [3, 5]: 119 % of control | Mustard injury [3, 5]: 78 % of control | Mustard bleaching [3, 6]: 132 % of control | Mustard injury [3, 6]: 28 % of control | Mustard bleaching [3, 7]: 94 % of control | Mustard injury [3, 7]: 78 % of control | Mustard bleaching [3, 8]: 94 % of control | Mustard injury [3, 8]: 31 % of control | Mustard injury [3, 9]: 61 % of control | Mustard injury [3, 10]: 26 % of control | Mustard injury [3, 11]: 39 % of control | Mustard injury [3, 12]: 3 % of control | Mustard injury [3, 13]: 42 % of control | Mustard injury [3, 14]: 3 % of control | Crabgrass bleaching [4, 5]: 97 | Crabgrass cover [4, 5]: 88 | Crabgrass injury [4, 5]: 94 | Crabgrass bleaching [4, 6]: 100 | Crabgrass cover [4, 6]: 67 | Crabgrass injury [4, 6]: 100 | Crabgrass bleaching [4, 7]: 100 | Crabgrass cover [4, 7]: 94 | Crabgrass injury [4, 7]: 100 | Crabgrass bleaching [4, 8]: 100 | Crabgrass cover [4, 8]: 67 | Crabgrass injury [4, 8]: 100 | Crabgrass bleaching [4, 9]: 100 | Crabgrass cover [4, 9]: 100 | Crabgrass injury [4, 9]: 100 | Crabgrass bleaching [4, 10]: 100 | Crabgrass cover [4, 10]: 72 | Crabgrass injury [4, 10]: 100 | Crabgrass bleaching [4, 11]: 100 | Crabgrass injury [4, 11]: 97 | Crabgrass bleaching [4, 12]: 100 | Crabgrass injury [4, 12]: 94 | Crabgrass bleaching [4, 13]: 97 | Crabgrass injury [4, 13]: 97 | Crabgrass bleaching [4, 14]: 100 | Crabgrass injury [4, 14]: 94 | Crabgrass bleaching [4, 15]: 97 | Crabgrass injury [4, 15]: 94 | Crabgrass bleaching [4, 16]: 100 | Crabgrass injury [4, 16]: 94 | Crabgrass bleaching [4, 17]: 100 | Crabgrass bleaching [4, 18]: 100 | Crabgrass bleaching ([4]; rating 8, 0.022 lbs ai/A (0.5 oz/A)): 100 | Crabgrass bleaching ([4]; rating 8, 0.13 lbs ai/A (3 oz/A)): 100

From patent US11432549B2, “Carbamoyl triazolinone based herbicide combinations and method of use” (Arysta LifeScience Corporation, priority 2009, dated 2022)
